Experimental data reported in US8409618B2, “Odor-reducing quinone compounds” (Kimberly-Clark Worldwide, Inc., priority 2002, dated 2013).
Each block holds one compound with its values, some of them ahead of it.

How the values were obtained:
[1] = Urine odor panel ranking, dye powders in urine, 1.6 millimolar (Example 6); parameters: species or system human; conditions: 1.6 millimolar dye in urine, 24 hours, 37° C.
Method: (§1) Qualitative odor reduction was also assessed against common odors, such as garlic and urine. Specifically, panelists assessed odorant-containing jars by carefully unscrewing, and then raising the lid of each jar in a controlled manner, such that the odor was not diluted by the ambient air. The jars were wrapped and coded to ensure that the sample identity was unknown.
The effectiveness of various dyes in reducing urine odor was compared. The dyes chosen for this example were powders of Acid Blue 25, Acid Blue 45, Acid Blue 129, FD&C Blue No. 1 (a triarylmethane dye), Acid Green 27, Acid Green 41, and Mordant Violet 5 (Alizarin Violet 3R) (commercially available from Sigma-Aldrich Chemical Co., Inc. of St. Louis, Mo.), as well as D&C Green No. 5 (commercially available from Noveon Hilton Davis, Inc. of Cincinnati, Ohio). Human female urine was initially collected and pooled by a nurse on staff at Kimberly-Clark Corporation. […] Powders of the aforementioned dyes were weighed and placed into the mason jars containing 50 milliliters of urine so that the final concentration of the dye powder was 1.6 millimolar (equivalent to 0.1 wt. %). […] A score of “10” was assigned to the most malodorous jar and a score of “1” was assigned to the least malodorous jar.

[2] = Urine odor and secondary odor panel ranking, dye powders in urine, 8 millimolar (Example 7); parameters: species or system human; conditions: for Secondary Odor Ranking: scale 1 to 5, 5 extremely unpleasant, individual panelists' scores; for Average Urine Odor Ranking (with statistical corrections), Avg. Score: ignoring statistical anomalies
Method: as §1
The effectiveness of various dyes in reducing urine odor was compared. […] Human female urine was initially collected and pooled by a nurse on staff at Kimberly-Clark Corporation. The pooled urine was added to mason jars in 50-milliliter aliquots using an automated pipette aid. Powders of the aforementioned dyes (commercially available from Sigma-Aldrich Chemical Co., Inc. of St. Louis, Mo. and Noveon Hilton Davis, Inc. of Cincinnati, Ohio) were weighed and placed into the mason jars containing 50 milliliters of urine so that the final concentration of the dye powder was 8 millimolar (equivalent to 0.5 wt. %). The mason jars were placed in an incubator overnight at 37° C.
To aid in the assessment of the dyes, the mason jars were divided into two groups for a morning assessment, and the best of both groups were compared in an afternoon assessment (after a total of 24 hours). In addition to ranking the jars from least to most malodorous (on a scale from 1 to 7, with 7 being the most malodors), panelists were also asked to judge whether there were secondary (non-urine) odors present and, if so, the extent that the secondary odors were unpleasant (on a scale from 1 to 5, with 5 being extremely unpleasant).
In this assessment, panelists were given instructions to rank the least malodorous jar as “1” and the most malodorous jar as “10,” remaining free to rank the other jars between 2-9.

[3] = Redox potential (redox potentiometry); assay type: physicochemical; conditions: compared with hydrogen (set at 0)
From the text: The ability of quinone compounds to accept electrons from another substance (i.e., be reduced) may be quantified using a technique known as redox potentiometry. Redox potentiometry is a technique that measures (in volts) the affinity of a substance for electrons—its electronegativity—compared with hydrogen (which is set at 0). Substances more strongly electronegative than (i.e., capable of oxidizing) hydrogen have positive redox potentials. Substances less electronegative than (i.e., capable of reducing) hydrogen have negative redox potentials. The greater the difference between the redox potentials of two substances (ΔE), the greater the vigor with which electrons will flow spontaneously from the less positive to the more positive (more electronegative) substance. As is well known in the art, redox potential may be measured using any of a variety of commercially available meters, such as an Oxidation Reduction Potential (ORP) tester commercially available from Hanna Instruments, Inc. of Woonsocket, R.I. The redox potential of the quinone compounds may, for instance, be less than about −50 millivolts (mV), in some embodiments less than about −150 mV, in some embodiments less than about −300 mV, and in some embodiments, less than about −500 mV. Although not always the case, the redox potential may vary based on the number and location of functional groups, such as sulfonic acid, on the quinone structure. For example, 2-sulfonic acid anthraquinone has a redox potential of −380 mV; 2,6-disulfonic acid anthraquinone has a redox potential of −325 mV; and 2,7-disulfonic acid anthraquinone has a redox potential of −313 mV. Likewise, 2-sulfonic acid naphthaquinone has a redox potential of −60 mV. The use of other functional groups may also have an affect on the ultimate redox potential of the compound. For example, Acid Blue 25, which also contains amino- and aramid functional groups, has a redox potential of −605 mV.

[4] = Urine odor panel ranking, dye powders in urine, 8 millimolar (Example 5); parameters: species or system human; conditions: 8 millimolar dye in urine; for urine malodor reduction (panel): 6 and 24 hours
Method: as §1, with “unknown. The effectiveness of various quinone dyes in reducing urine odor was compared. Human female urine was initially collected and pooled by a nurse on staff at Kimberly-Clark Corporation.” for “unknown.”

[5] = Urine odor panel ranking, dye-coated Poise pads without SN-AK (Example 8); parameters: species or system human
Method: as §1
Specifically, Acid Green 25, Acid Green 41, Acid Blue 129, and D&C Green No. 5 were tested. Powders of the aforementioned dyes (commercially available from Sigma-Aldrich Chemical Co., Inc. of St. Louis, Mo. and Noveon Hilton Davis, Inc. of Cincinnati, Ohio) were dissolved in water so that the concentration of the dye was 8 millimolar (equivalent to 0.5 wt. %). Samples of tissue wrap were created by cutting 9″×6″ sheets from a roll of tissue (1 ply white cellulose wrap sheet having a basis weight of 16.6 grams per square meter) were weighed, oven-dried overnight at 90° C., and weighed again the next day to calculate the amount of residual water in each wrap. The wraps were then dipped into a respective dye solution and hung to dry overnight, after which they were weighed again. The treated wraps were then rinsed in deionized water to remove any unbound dye and hung again to dry overnight. After weighing the treated wraps, they were once again oven-dried overnight at 90° C. and weighed to determine the dry add-on percentages ([…]). The add-on percentage for each sample was approximately 1.6 wt. %.
Two different sets of Poise® pads (commercially available from Kimberly-Clark Corp.) were tested. The first set of dye-coated tissue wraps (without SN-AK) was inserted around the pledgette area of the Poise® pads. The Poise® pads were cut open and the tissue wrap surrounding the pledgette carefully removed and replaced with dye-coated tissue wrap. The second set of dye-coated tissue wraps (without SN-AK) used dye coatings on the top of the pad (rather than inside). These pads were constructed by spreading the solution over the top of each pad. To prevent the superabsorbent area of the pad from soaking up the solution, the pads were cut open prior to coating and a layer of plastic wrap was placed between the top layer of the pad and the superabsorbent core. A pad that was cut open, but coated only with water on top, was used as a control. All pads were dried at room temperature overnight before placing them in mason jars for testing. For control purposes, a Poise® pad was also tested that was cut open, but retained its original tissue wrap. In addition, Serenity® Night & Day™ incontinence pads, which are commercially available from SCA Incontinence Care of Eddystone, Pa. and said to employ OdaSorb Plus™ to reduce odor, were also used for comparison.
Fresh human female urine was then pooled, and 50-milliliter aliquots were applied to the pads using a pipette. The mason jars were placed in a 37° C. incubator overnight for assessment the next day. […] Panelists were again asked to rank any secondary odors for unpleasantness on a scale of 1-5.

[6] = First Grouping, morning assessment, 8 millimolar, 7 most malodorous
[7] = First Grouping, scale 1 to 7, 7 most malodorous
[8] = After 24 Hours, top performers of both groupings, 1 least, 10 most malodorous
[9] = after 24 hours, top performers, 1 least, 10 most malodorous
[10] = After 6 Hours, 10 most, 1 least malodorous
[11] = After 24 Hours, 10 most, 1 least malodorous
[12] = Second Grouping, morning assessment, 8 millimolar, higher = more malodorous
[13] = 1st set (tissue-wrap coating), After 30 Hours

Compound: Cc1ccc(Nc2cccc3c2C(=O)c2cccc(Nc4ccc(C)cc4S(=O)(=O)[O-])c2C3=O)c(S(=O)(=O)[O-])c1.[Na+].[Na+]
urine odor reduction (panel) [1]: did not perform as well in reducing odor as D&C Green No. 5
Urine Odor Ranking (number of panelists): ranking 4 [2, 6]: 1 number of panelists
Urine Odor Ranking (number of panelists): ranking 6 [2, 6]: 3 number of panelists
Urine Odor Ranking (number of panelists): ranking 7 [2, 6]: 1 number of panelists
Secondary Odor Ranking ([2]; First Grouping): 1
Average Urine Odor Ranking, Avg. Score [2, 7]: 5.8

Compound: O=C1c2ccc(S(=O)(=O)O)cc2C(=O)c2ccc(S(=O)(=O)O)cc21 [2,6-disulfonic acid anthraquinone]
redox potential [3]: −325 mV

Compound: O=C1c2ccc(S(=O)(=O)O)cc2C(=O)c2cc(S(=O)(=O)O)ccc21 [2,7-disulfonic acid anthraquinone]
redox potential [3]: −313 mV

Compound: O=C1c2ccccc2C(=O)c2cc(S(=O)(=O)O)ccc21 [2-sulfonic acid anthraquinone]
redox potential [3]: −380 mV

redox potential [3]: −60 mV
Compound: O=C1C=C(S(=O)(=O)O)C(=O)c2ccccc21 [2-sulfonic acid naphthaquinone]

Compound: Nc1c(S(=O)(=O)[O-])cc(Nc2ccccc2)c2c1C(=O)c1ccccc1C2=O.[Na+] [Acid Blue 25]
redox potential [3]: −605 mV
Urine Odor Ranking (number of panelists): ranking 4 [2, 8]: 1 number of panelists
Urine Odor Ranking (number of panelists): ranking 7 [2, 8]: 1 number of panelists
Urine Odor Ranking (number of panelists): ranking 9 [2, 8]: 2 number of panelists
Urine Odor Ranking (number of panelists): ranking 10 [2, 8]: 1 number of panelists
Secondary Odor Ranking ([2]; After 24 Hours): 4
Urine Odor Ranking (number of panelists): ranking 1 [2, 6]: 1 number of panelists
Urine Odor Ranking (number of panelists): ranking 2 [2, 6]: 1 number of panelists
Urine Odor Ranking (number of panelists): ranking 3 [2, 6]: 1 number of panelists
Urine Odor Ranking (number of panelists): ranking 4 [2, 6]: 1 number of panelists
Urine Odor Ranking (number of panelists): ranking 5 [2, 6]: 1 number of panelists
Secondary Odor Ranking ([2]; First Grouping): 2
Average Urine Odor Ranking, Avg. Score [2, 7]: 3.0
Average Urine Odor Ranking, Avg. Score [2, 9]: 6.8
Average Urine Odor Ranking (with statistical corrections), Avg. Score ([2]; after 24 hours, top performers): 8.8
urine odor reduction (panel) ([2]; first grouping): functioned effectively to reduce odor

Compound: Cc1cc(C)c(Nc2cc(S(=O)(=O)[O-])c(N)c3c2C(=O)c2ccccc2C3=O)c(C)c1.[Na+] [Acid Blue 129]
urine malodor reduction (panel) [4]: functioned effectively in reducing urine malodor
Avg. Ranking (odor) [4, 10]: 1.6
Ranking (number of panelists): ranking 1 [4, 10]: 4 number of panelists
Ranking (number of panelists): ranking 4 [4, 10]: 1 number of panelists
Avg. Ranking (odor) [4, 11]: 1.3
Ranking (number of panelists): ranking 1 [4, 11]: 5 number of panelists
Ranking (number of panelists): ranking 3 [4, 11]: 1 number of panelists
Urine Odor Ranking (number of panelists): ranking 1 [2, 8]: 1 number of panelists
Urine Odor Ranking (number of panelists): ranking 3 [2, 8]: 1 number of panelists
Urine Odor Ranking (number of panelists): ranking 4 [2, 8]: 1 number of panelists
Urine Odor Ranking (number of panelists): ranking 5 [2, 8]: 1 number of panelists
Urine Odor Ranking (number of panelists): ranking 6 [2, 8]: 1 number of panelists
Average Urine Odor Ranking, Avg. Score ([2]; Second Grouping): 1.8
Urine Odor Ranking (number of panelists): ranking 1 [2, 12]: 3 number of panelists
Urine Odor Ranking (number of panelists): ranking 3 [2, 12]: 2 number of panelists
urine odor reduction (panel) ([2]; after 24 hours, top performers of both groupings): achieved the best odor reduction
Average Urine Odor Ranking, Avg. Score [2, 9]: 3.8
Average Urine Odor Ranking (with statistical corrections), Avg. Score ([2]; after 24 hours, top performers): 3.8
Urine Odor Ranking (number of panelists): ranking 1 [5, 13]: 1 number of panelists
Urine Odor Ranking (number of panelists): ranking 3 [5, 13]: 1 number of panelists
Urine Odor Ranking (number of panelists): ranking 4 [5, 13]: 2 number of panelists
Average Urine Odor Ranking, Avg. Score ([5]; 1st set (tissue-wrap coating), final pooled assessment): 3.00
urine odor reduction (panel), assessment within set ([5]; first set of pads (dye-coated tissue wrap around pledgette), overnight 37° C.): performed best for the first set of pads
overall urine odor control performance (panel) ([5]; tissue-wrap coating, final pooled assessment): performed very well

Compound: Cc1ccc(Nc2ccc(Nc3ccc(C)cc3S(=O)(=O)[O-])c3c2C(=O)c2ccccc2C3=O)c(S(=O)(=O)[O-])c1.[Na+].[Na+] [D&C Green No. 5]
urine malodor reduction (panel) [4]: functioned effectively in reducing urine malodor
Avg. Ranking (odor) [4, 10]: 3.0
Ranking (number of panelists): ranking 1 [4, 10]: 1 number of panelists
Ranking (number of panelists): ranking 3 [4, 10]: 3 number of panelists
Ranking (number of panelists): ranking 5 [4, 10]: 1 number of panelists
Avg. Ranking (odor) [4, 11]: 5.2
Ranking (number of panelists): ranking 4 [4, 11]: 3 number of panelists
Ranking (number of panelists): ranking 5 [4, 11]: 1 number of panelists
Ranking (number of panelists): ranking 7 [4, 11]: 2 number of panelists
Urine Odor Ranking (number of panelists): ranking 2 [2, 8]: 1 number of panelists
Urine Odor Ranking (number of panelists): ranking 4 [2, 8]: 1 number of panelists
Urine Odor Ranking (number of panelists): ranking 7 [2, 8]: 2 number of panelists
Urine Odor Ranking (number of panelists): ranking 10 [2, 8]: 1 number of panelists
Secondary Odor Ranking ([2]; After 24 Hours): 4
urine odor reduction (panel) ([2]; Second Grouping): did not perform as well compared to the other dyes
Urine Odor Ranking (number of panelists): ranking 4 [2, 12]: 3 number of panelists
Urine Odor Ranking (number of panelists): ranking 5 [2, 12]: 2 number of panelists
Secondary Odor Ranking ([2]; Second Grouping): 4
Average Urine Odor Ranking, Avg. Score [2, 9]: 6.0
Average Urine Odor Ranking (with statistical corrections), Avg. Score ([2]; after 24 hours, top performers): 7.0
